The values that follow come from a melting point compilation (Tetko et al.; mined from patent text by program, amines drawn as free bases though some values may be those of a salt).

In general, melting point refers to the temperature of the solid-liquid transition.

`COc1ccc(Sc2cccc(C(=O)O)c2)cc1` registered a melting point of 121 to 123 °C.
As for `C[C@@H](C(=O)Nc1ccc(-n2nc(C(F)(F)F)cc2C2CC2)cc1)n1nnc2cccnc21`, the figure is 186 to 191 °C; as for `CC(C)c1ncc(O)cn1`, 184 °C.
The compound `CC(C)(C)OC(=O)Nc1ccc(-c2ncn(-c3ccc(OC(F)(F)C(F)(F)F)cc3)n2)cc1` showed a melting point of 205 to 209 °C.
Next, `CC(=O)Oc1cccc(C(=O)c2ccccc2)c1OC(C)=O`: 81 to 83 °C.
As for `CCOC(=O)c1cn2c3c(c(C#N)ccc3c1=O)CCC2C` (stereo unspecified), the figure is 249 to 251 °C.
As for `Cc1[nH]c(=O)c(C#N)cc1-c1ccccc1OCCCC(=O)O`, the figure is 218 to 220 °C; as for `COc1ccc(Cn2c(C(=O)O)c(-c3ccc4c(c3)OCO4)c3ccccc32)c(OCC(=O)O)c1`, 195 to 196 °C; as for `CCOC(=O)CCCOc1cccc(C=Cc2ccc3ccc(Br)cc3n2)c1`, 61 to 63 °C.
The compound `N#Cc1cnc2sccc2c1Cl` gave a melting point of 100 to 103 °C.
`CCCc1ccc2c(c1)C1(O)C(=O)c3ccccc3C1(O)O2` (stereo unspecified) yielded a melting point of 126 to 127 °C.
Consider `Oc1ccc([C@H]2CC[C@H](CCC3OCCO3)CC2)cc1`, for which the melting point is 154 °C.
`Nc1cc(C(=O)c2ccccc2)ccc1N1CCCC1` came in with a melting point of 112 °C.
`CCCCOC(=O)c1cc(=O)c2c(cc(OC)c3ncccc32)[nH]1`: the melting point lay within 212 to 213 °C.
As for `CC(=O)n1cccc(O)c1=O`, the figure is 140 to 141 °C.
`CC[C@H]1COC(=O)N1c1nc(-c2ccc(Br)cc2)c(Cl)s1` had a melting point of 137 to 139 °C.
Regarding `Cc1c(-c2ccccc2)[nH]c2ccc(Cl)cc2c1=O`, the melting point lay within 296 to 302 °C.
As for `COC(=O)c1ccc2occ(-c3ccc(SC)c(Cl)c3)c2c1`, the figure is 115 to 116 °C.
Next, `COc1ccc(-c2cccc3c2OC(COS(=O)(=O)c2ccc(C)cc2)C3)c(OC)c1` (stereo unspecified): 120 to 123 °C; `O=C(c1ccccc1)c1cccc(Cc2c(O)c3ccc(Cl)cc3[nH]c2=O)c1`: 294 to 295 °C.
As for `CC1(C)CCCC[C@H]1[C@H](O)c1ccc(F)cc1`, the figure is 105 to 108 °C; as for `CCc1cc([N+](=O)[O-])cc([N+](=O)[O-])c1Cl`, 41 to 44 °C; as for `CCOCn1c(C(=O)c2cc(C)cc(C)c2)c(C(C)C)c(=O)[nH]c1=O`, 120 to 122 °C.
`O=C(O)c1cn(Cc2csnn2)c2cc(F)c(F)cc2c1=O` registered a melting point of 257 to 261 °C.
Compound `COC(=O)c1ccccc1C1=NC(C)(C(C)C)C(=S)N1` (stereo unspecified) showed a melting point of 134 to 138 °C.
Compound `Cn1c(-c2ccc3ccccc3c2)nnc1S(C)(=O)=O` returned a melting point of 204 to 206 °C.
As for `O=C(O)c1ccc(-c2cccc3ccccc23)cc1`, the figure is 221 to 224 °C; as for `NC1([C@@H]2CCN(c3ccc4c(=O)c(C(=O)O)cn(C5CC5)c4c3OC(F)F)C2)CC1`, 206 to 208 °C; as for `CCCN1CCC=C(c2cccc3[nH]ccc23)C1`, 168 °C.
As to `O=C1c2c(O)ccc(O)c2C(=O)c2c(NCCN3CCCC3CO)ccc(NCCN3CCCC3CO)c21` (stereo unspecified), the melting point lay within 202 to 204 °C.
As for `COc1cc(C2CCC(c3cc(OC)c(OC)c(OC)c3)C2N)cc(OC)c1OC` (stereo unspecified), the figure is 117 to 119 °C; as for `COc1ccc2[nH]c(S(=O)Cc3nccc(N(C)C)c3F)nc2c1` (stereo unspecified), 145 to 147 °C; as for `O=C1Cc2cc(C(=O)O)ccc2N1`, over 300 °C.
Regarding `O=C1c2ccccc2C(=O)N1OS(=O)(=O)c1ccccc1`, the melting point was 186 °C.
As for `CN(C)CC1Cc2ccc(NC(=O)c3ccc(-c4ccc(Cl)cc4)cc3)cc2C1` (stereo unspecified), the figure is 192 to 194 °C; as for `COc1ccc(S(=O)(=O)Nc2cccnc2NC(=O)c2ccccc2C)cc1`, 160 to 162 °C.
As for `C=CCSC(=NC(=O)OC)NC(=O)NC(C)C`, the figure is 103 to 106 °C.
In turn, `COC(=O)C1(NS(=O)(=O)c2ccc3c(Cl)cnc(Cl)c3c2)CCOCC1` had a melting point of 168 to 170 °C.
As for `COC(=O)C=Cc1csc2ccccc12`, the figure is 63 to 65 °C; as for `Cc1nnc(Sc2c(C)cccc2C)o1`, 53 to 54 °C; as for `O=C(Cc1c2c(nn1-c1ccccc1)c(Cl)nc1ccccc12)N1CCN(Cc2ccccc2)CC1`, 210 to 212 °C.
As for `CNc1c(F)cc2c(=O)c(C(=O)O)cn(-c3nc(NCCO)c(F)cc3F)c2c1Cl`, the figure is 201 to 205 °C.
As for `C[C@@H]1CN(Cc2ccc(COc3cccc4c3CN(C3CCC(=O)NC3=O)C4=O)cc2)C[C@H](C)O1` (stereo partly specified), the melting point fell in the range of 164 to 166 °C.
In turn, `O=Cc1cc(-c2ccc(Cl)cc2F)ccc1OC(F)(F)F` gave a melting point of 41 to 42 °C.
As for `CCCn1cc(C(=O)OCC)c(=O)c2ccoc21`, the figure is 130 °C.
On to `COc1nc(NCCNC(C)C)nc(OC)c1[N+](=O)[O-]`, for which the melting point stood at 135 °C.
As for `O=C(Nc1ccc(Cl)c(C(F)(F)F)c1)N1COc2cc(Oc3ccnc(Cl)n3)ccc21`, the figure is 140 to 142 °C.
Next, `COc1ccc(C)cc1NC(=O)Nc1ccc(C2=CCN(C(=O)Nc3ccc(OCCO)cc3C(F)(F)F)CC2)cc1`: 150 to 153 °C; `C=C(C)N(C(=C)C)C(=O)C(C)Oc1cc(-c2ccccc2)nc2ccccc12` (stereo unspecified): 110 °C; `CCCCc1ccc(Cn2cc(C3c4ccccc4C=Cc4ccccc43)c(=S)[nH]c2=O)cc1C(=O)O`: 230 °C.
As for `CCOC(=O)C(=CC=C(O)C(=O)O)Sc1ccc2ccccc2c1`, the figure is 182 °C.
`Oc1cc(CN/C=C2\CN=Cc3ccc(Br)cc32)ccc1OC(F)F` registered a melting point of 256 to 258 °C.
As for `N#CC(=Cc1ccc2c(c1)OCCO2)c1cccnc1`, the figure is 158 to 159 °C; as for `CCOC(=O)C(Cl)=Cc1cc(-n2ncc(C(F)(F)F)c(C)c2=O)ccc1Cl`, 164 to 167 °C.
In turn, `CCN(C)c1nc2sc3c(NCc4ccco4)ncnc3c2c2c1CCC(C)(C)C2` yielded a melting point of 116 to 118 °C.
As for `OC(c1ccc(Cl)cc1)c1ccc(-n2ccnc2)nc1` (stereo unspecified), the figure is 147 to 149 °C; as for `COc1ccc(-c2cc(C=O)[nH]c2-c2ccc(OC)cc2)cc1`, 165 to 166 °C; as for `N#Cc1ccc(N(CCOc2ccc(OCc3ccccc3)c(Br)c2)n2cnnc2)cc1`, 163 to 166 °C.
As for `CN(C)S(=O)(=O)c1ccc([N+](=O)[O-])cc1C(F)(F)F`, the figure is 95 to 97 °C; as for `CN1C(=O)CCC1(O)c1cccc(C(F)(F)F)c1` (stereo unspecified), 137 to 139 °C.
Next, `CCOC(=O)N1CCN(C2=Nc3ccccc3Cc3ccccc32)CC1`: 137 to 138 °C; `Oc1ccc2c(c1)CCC(CCN1CCCCC1)C2` (stereo unspecified): 154 to 157 °C; `CCN(CC)c1ccc(C2(c3ccc(N(C)C)cc3N(C)C)OC(=O)c3cc(N(C)C)ccc32)cc1` (stereo unspecified): 123 to 125 °C.
The compound `CN(CCOc1ccc(CC2SC(=O)NC2=O)cc1)c1nc2ccccc2s1` (stereo unspecified) gave a melting point of 167 to 168 °C.
Take `O=C1OC(CCc2ccccc2)(c2ccccc2)CC(O)=C1SCc1cccc2ccccc12` (stereo unspecified): the melting point fell in the range of 132 to 134 °C.
On to `COc1ccc(CCN2CCC(C(O)(c3cc4ccccc4s3)c3cc4ccccc4s3)CC2)cc1`, for which the melting point was in the range of 168 to 179 °C.
For the compound `C=C1N(c2ccccc2)C(=O)OC12CCN(CCC=C(c1ccc(F)cc1)c1ccc(F)cc1)CC2`, the melting point was 136 to 138 °C.
Next, `Clc1ccc(C2=C[C@H](CN3CC=C(c4ccccc4)CC3)CCC2)cc1`: 138 to 141 °C.
Next, `CCCCN1CCC(CNC(=O)c2ccc(N)n3cc(-c4ccccc4)nc23)CC1`: 221 °C; `Cn1c2c(c3cc(OCc4ccccc4)ccc31)CC(C(N)=O)C2` (stereo unspecified): 145 to 148 °C; `Cc1nc2c3c(ccn2c1C)C(=O)CC(c1ccsc1)N3` (stereo unspecified): 176 to 177 °C.
As for `CC1=NN(C)C(=O)C1C(=O)Nc1cccc2c1CCC2(C)C` (stereo unspecified), the figure is 141 °C.
The compound `CNc1c(F)cccc1C(C)=O` gave a melting point of 26 to 28 °C.
As for `COc1cc2c(c3c1OC(C)(C)C3)C(c1ccccc1)=NC(C)(C)C2`, the figure is 128 to 129 °C; as for `CCOC(=O)c1c(Nc2ccncc2)c2ccc(Cl)cc2n1C`, 154 to 155 °C; as for `CC(C)(CCc1ccccc1)NCC(O)c1ccc(O)c(C(N)=O)c1` (stereo unspecified), 154 °C.
`Nc1c(Cl)ncnc1NCCc1ccccc1` displayed a melting point of 156 to 157 °C.
`CCCCc1nc2c(N)nc3ccc(O)cc3c2n1CCCCNC(=O)N1CCOCC1` returned a melting point of 177 to 182 °C.
Compound `C#CCN1C(=O)COc2ccc(N)cc21` gave a melting point of 136 to 140 °C.
The compound `COc1cc(C)nc(-c2ccc(C)cc2)n1` had a melting point of 66 to 67 °C.
As for `CCCOc1ccc2oc(-c3ccc4c(c3)C=C(C(=O)Nc3ccc(CN(C)C5CCOCC5)cc3)CCS4(=O)=O)cc2c1`, the melting point was in the range of 241 to 242 °C.
Turning to `CC(C)(C)C(=O)Nc1ccc2oc3c(c2c1)CCC3`, the melting point fell in the range of 188 to 190 °C.
As for `NC(CS(=O)(=O)c1ccccc1)=NNC(=O)c1cc2ccccc2o1`, the figure is 205 to 220 °C; as for `CS(=O)c1ccc(-c2nn(Cc3ccccc3)c(=O)cc2-c2ccc(F)cc2)cc1` (stereo unspecified), 198 °C; as for `NCc1cc(Cl)ccc1O`, 160 to 162 °C.
Consider `O=Cc1c(O)c(Cl)cc(Cl)c1F`, for which the melting point lay within 58 to 62 °C.
`CC(C)c1n[nH]c2c(NCc3ccccc3Br)ncnc12`: the melting point is 194 to 196 °C.
For `O=Cc1c(Br)nc(-c2ccccc2)n1Cc1cc2c(cc1Cl)OCO2`, the melting point was determined as 148 °C.
As for `CNc1nn(C(=O)NC(C)C(C)Cc2ccc(Cl)cc2)c(=O)n1C` (stereo unspecified), the melting point lay in the range of 222 to 224 °C.
As for `C[C@H]1NC(Cc2ccc(Br)c(Oc3cc(C#N)cc(C(F)F)c3)c2F)=NNC1=O`, the figure is 184 to 186 °C.
`O=c1cnn(-c2cc(Cl)c(Cc3ccc(Cl)cc3)c(Cl)c2)c(=O)[nH]1` yielded a melting point of 175 to 176 °C.
